Laboratory results from patent publication US9951077B2, “Aminopyridazinone compounds as protein kinase inhibitors” (ETERNITY BIOSCIENCE INC., priority 2014, dated 2018).

What follows are compounds tested against Btk (Homo sapiens (Human), UniProt Q06187) (assay: Btk kinase assay (ADP-Glo)). Settings: ATP 1.2 μM, 60 minutes, room temperature; read-out: BTK enzyme IC50.
Chain of Btk (Q06187 whole entry): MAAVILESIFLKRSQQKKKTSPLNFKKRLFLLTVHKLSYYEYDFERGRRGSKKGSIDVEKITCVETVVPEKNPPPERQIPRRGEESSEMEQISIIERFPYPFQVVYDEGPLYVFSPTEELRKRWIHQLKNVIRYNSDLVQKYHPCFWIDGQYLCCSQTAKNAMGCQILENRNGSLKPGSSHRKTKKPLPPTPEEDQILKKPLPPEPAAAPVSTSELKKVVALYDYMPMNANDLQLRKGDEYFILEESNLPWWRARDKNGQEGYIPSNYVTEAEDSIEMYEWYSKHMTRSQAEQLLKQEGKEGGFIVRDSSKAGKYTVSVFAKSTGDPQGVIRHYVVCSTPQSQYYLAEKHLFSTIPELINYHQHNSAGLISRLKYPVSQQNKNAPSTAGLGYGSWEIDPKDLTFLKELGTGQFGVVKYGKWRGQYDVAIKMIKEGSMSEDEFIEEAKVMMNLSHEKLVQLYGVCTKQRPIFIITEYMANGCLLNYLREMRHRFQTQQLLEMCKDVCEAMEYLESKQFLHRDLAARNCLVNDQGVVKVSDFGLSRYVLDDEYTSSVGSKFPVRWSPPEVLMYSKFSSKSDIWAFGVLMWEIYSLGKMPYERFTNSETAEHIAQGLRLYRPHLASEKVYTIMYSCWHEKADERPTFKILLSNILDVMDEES
Assay type: biochemical
Procedure: The Btk kinase assay was performed using a ADP-Glo Btk kinase assay kit purchased from Promega (Madison, Wis.). The assay was conducted according to the protocols provided in the assay kit. In brief, the enzyme reaction was carried out in the kinase reaction buffer containing Btk (2 ng/μl), ATP (1.2 μM), poly GT peptide (0.3 μM), DTT (40 nM), MnCl2 (1.4 mM), and 1×kinase buffer (included in the kit) in the presence or absence of the tested articles at various concentrations in 384-well plate at room temperature (22±1° C.) for 60 minutes. The final reaction volume for each reaction was 10 μl. Then, 4 μl of ADP-Glo reagent (included in the kit) was added into the reaction and the plate was further incubated for another 40 minutes to terminate the reaction and deplete the remaining ATP. Finally, 10 μl of the kinase detection reagent was added into each reaction to simultaneously convert ADP to ATP and allow the newly synthesized ATP to be measured by a plate-reading luminometer (Victor X5 2030 multilabel reader, PerkinElmer). IC50 value was calculated using appropriate programs in GraphPad Prism by plotting the logarithm of the concentration versus percent inhibition as compared with a vehicle (DMSO) control.
For `C=CC(=O)N1CCCC(n2cc(-c3ccc(Oc4cccc(Cl)c4)c(OC)c3)c3c(N)n[nH]c(=O)c32)C1` (centres unmarked) [Example 68, 1-(1-acryloylpiperidin-3-yl)-4-amino-3-(4-(3-chlorophenoxy)-3-methoxyphenyl)-1H-pyrrolo[2,3-d]pyridazin-7(6H)-one], the IC50 was 10 to 1000 nM.
`C=CC(=O)N1CCC[C@@H](n2c(Cl)c(-c3ccc(Oc4ccccc4F)cc3)c3c(N)n[nH]c(=O)c32)C1` [Example 83, (R)-1-(1-acryloylpiperidin-3-yl)-4-amino-2-chloro-3-(4-(2-fluorophenoxy)phenyl)-1H-pyrrolo[2,3-d]pyridazin-7(6H)-one] showed an IC50 of 1000 to 100000 nM.
`Nc1n[nH]c(=O)c2c1c(-c1ccc(Oc3ccccc3)cc1)cn2[C@@H]1CCCN(C(=O)/C=C/CN2CCCC2)C1` [Example 34, 4-amino-3-(4-phenoxyphenyl)-1-[(3R)-1-[(E)-4-pyrrolidin-1-ylbut-2-enoyl]-3-piperidyl]-6H-pyrrolo[2,3-d]pyridazin-7-one] was tested, and the IC50 was no more than 10 nM.
`CC#CC(=O)N[C@H]1CC[C@@H](n2cc(-c3ccc(Oc4ccccc4F)cc3)c3c(N)n[nH]c(=O)c32)CC1` [Example 102, N-((1s,4s)-4-(4-amino-3-(4-(2-fluorophenoxy)phenyl)-7-oxo-6,7-dihydro-1H-pyrrolo[2,3-d]pyridazin-1-yl)cyclohexyl)but-2-ynamide] was tested, and the IC50 was 10 to 1000 nM.
For `CNC/C=C/C(=O)N1CCC[C@@H](n2cc(-c3ccc(Oc4ccccc4)cc3)c3c(N)n[nH]c(=O)c32)C1` [Example 18, 4-amino-1-[(3R)-1-[(E)-4-(methylamino)but-2-enoyl]-3-piperidyl]-3-(4-phenoxyphenyl)-6H-pyrrolo[2,3-d]pyridazin-7-one], the IC50 was no more than 10 nM.
Compound `C=CC(=O)N1CCCC(n2cc(-c3ccc(Oc4cccc(Cl)c4)cc3)c3c(N)n[nH]c(=O)c32)C1` (centres unmarked) [Example 66, 1-(1-acryloylpiperidin-3-yl)-4-amino-3-(4-(3-chlorophenoxy)phenyl)-1H-pyrrolo[2,3-d]pyridazin-7(6H)-one] has an IC50 of 10 to 1000 nM.
`C=CC(=O)N1CC(n2cc(-c3ccc(Oc4ccccc4)cc3)c3c(N)n[nH]c(=O)c32)C1` [Example 5, 4-amino-3-(4-phenoxyphenyl)-1-(1-prop-2-enoylazetidin-3-yl)-6H-pyrrolo[2,3-d]pyridazin-7-one] gave an IC50 of 10 to 1000 nM.
`CCC(=O)N1CCC[C@@H](n2cc(-c3ccc(Oc4c(F)cccc4F)cc3)c3c(N)n[nH]c(=O)c32)C1` [Example 115, (R)-4-amino-3-(4-(2,6-difluorophenoxy)phenyl)-1-(1-propionylpiperidin-3-yl)-1H-pyrrolo[2,3-d]pyridazin-7(6H)-one] showed an IC50 of 10 to 1000 nM.
`COc1ccc(-c2cn(C3CCCN(C(=O)/C=C/CN(C)C)C3)c3c(=O)[nH]nc(N)c23)cc1Cl` (centres unmarked) [Example 54, 4-amino-3-(3-chloro-4-methoxy-phenyl)-1-[1-[(E)-4-(dimethylamino)but-2-enoyl]-3-piperidyl]-6H-pyrrolo[2,3-d]pyridazin-7-one] showed an IC50 of no more than 10 nM.
`CCN(C/C=C/C(=O)N1CCC[C@@H](n2cc(-c3ccc(Oc4ccccc4)cc3)c3c(N)n[nH]c(=O)c32)C1)C1CC1` [Example 30, 4-amino-1-[(3R)-1-[(E)-4-[cyclopropyl(ethyl)amino]but-2-enoyl]-3-piperidyl]-3-(4-phenoxyphenyl)-6H-pyrrolo[2,3-d]pyridazin-7-one] showed an IC50 of 10 to 1000 nM.
`C=CC(=O)N1CCC(F)C(n2cc(-c3ccc(Oc4ccccc4)cc3)c3c(N)n[nH]c(=O)c32)C1` (centres unmarked) [Example 13, 1-(1-acryloyl-4-fluoropiperidin-3-yl)-4-amino-3-(4-phenoxyphenyl)-1H-pyrrolo[2,3-d]pyridazin-7(6H)-one] gave an IC50 of no more than 10 nM.
`C=CC(=O)N1CCCC(n2cc(-c3ccc(OC)cc3)c3c(N)n[nH]c(=O)c32)C1` (centres unmarked) [Example 51, 1-(1-acryloylpiperidin-3-yl)-4-amino-3-(4-methoxyphenyl)-1H-pyrrolo[2,3-d]pyridazin-7(6H)-one] gave an IC50 of no more than 10 nM.
For `C=CC(=O)N1CC[C@@H](n2cc(-c3ccc(Oc4ccccc4F)cc3)c3c(N)n[nH]c(=O)c32)C1` [Example 106, (R)-1-(1-acryloylpyrrolidin-3-yl)-4-amino-3-(4-(2-fluorophenoxy)phenyl)-1H-pyrrolo[2,3-d]pyridazin-7(6H)-one], the IC50 was 10 to 1000 nM.
`N#CN1CCC[C@@H](n2cc(-c3ccc(Oc4c(F)cccc4F)cc3)c3c(N)n[nH]c(=O)c32)C1` [Example 84, (R)-3-(4-amino-3-(4-(2,6-difluorophenoxy)phenyl)-7-oxo-6,7-dihydro-1H-pyrrolo[2,3-d]pyridazin-1-yl)piperidine-1-carbonitrile] was tested, and the IC50 was 10 to 1000 nM.
`Nc1n[nH]c(=O)c2c1c(-c1ccc(Oc3ccccc3)cc1)cn2[C@@H]1CCCN(C(=O)/C=C/CN2CCC2)C1` [Example 33, 4-amino-1-[(3R)-1-[(E)-4-(azetidin-1-yl)but-2-enoyl]-3-piperidyl]-3-(4-phenoxyphenyl)-6H-pyrrolo[2,3-d]pyridazin-7-one] showed an IC50 of no more than 10 nM.
Compound `CC#CC(=O)NC1CCC(n2cc(-c3ccc(Oc4ccccc4F)cc3)c3c(N)n[nH]c(=O)c32)C1` (centres unmarked) [Example 100, N-(3-(4-amino-3-(4-(2-fluorophenoxy)phenyl)-7-oxo-6,7-dihydro-1H-pyrrolo[2,3-d]pyridazin-1-yl)cyclopentyl)but-2-ynamide] has an IC50 of 10 to 1000 nM.
Compound `CN(C)C/C=C/C(=O)N1CCC[C@@H]1Cn1cc(-c2ccc(Oc3ccccc3)cc2)c2c(N)n[nH]c(=O)c21` [Example 42, 4-amino-1-[[(2R)-1-[(E)-4-(dimethylamino)but-2-enoyl]pyrrolidin-2-yl]methyl]-3-(4-phenoxyphenyl)-6H-pyrrolo[2,3-d]pyridazin-7-one] has an IC50 of 1000 to 100000 nM.
For `N#CN1CC[C@@H](n2cc(-c3ccc(Oc4ccccc4)cc3)c3c(N)n[nH]c(=O)c32)C1` [Example 107, (R)-3-(4-amino-7-oxo-3-(4-phenoxyphenyl)-6,7-dihydro-1H-pyrrolo[2,3-d]pyridazin-1-yl)pyrrolidine-1-carbonitrile], the IC50 was no more than 10 nM.
For `N#CCC(=O)N1CCC[C@@H](n2cc(-c3ccc(Oc4ccccc4)cc3)c3c(N)n[nH]c(=O)c32)C1` [Example 24, 3-[(3R)-3-[4-amino-7-oxo-3-(4-phenoxyphenyl)-6H-pyrrolo[2,3-d]pyridazin-1-yl]-1-piperidyl]-3-oxo-propanenitrile], the IC50 was 10 to 1000 nM.
With `C=CC(=O)N1CCC[C@@H](n2c(F)c(-c3ccc(Oc4ccccc4)cc3)c3c(N)n[nH]c(=O)c32)C1` [Example 81, (R)-1-(1-acryloylpiperidin-3-yl)-4-amino-2-fluoro-3-(4-phenoxyphenyl)-1H-pyrrolo[2,3-d]pyridazin-7(6H)-one] the IC50 was 10 to 1000 nM.
For `CN(C)C/C=C/C(=O)N1CCC[C@@H](n2cc(-c3ccc(Oc4ccccc4Cl)cc3)c3c(N)n[nH]c(=O)c32)C1` [Example 71, 4-amino-3-[4-(2-chlorophenoxy)phenyl]-1-[(3R)-1-[(E)-4-(dimethylamino)but-2-enoyl]-3-piperidyl]-6H-pyrrolo[2,3-d]pyridazin-7-one], the IC50 was no more than 10 nM.
Work on `CN(C)C/C=C/C(=O)N1CCCC(n2cc(-c3ccc(Oc4ccc(F)cc4)cc3)c3c(N)n[nH]c(=O)c32)C1` (centres unmarked) [Example 61, 4-amino-1-[1-[(E)-4-(dimethylamino)but-2-enoyl]-3-piperidyl]-3-[4-(4-fluorophenoxy)phenyl]-6H-pyrrolo[2,3-d]pyridazin-7-one] yielded an IC50 of 10 to 1000 nM.
Work on `N#C/C(=C\C1CC1)C(=O)N1CCC[C@@H](n2cc(-c3ccc(Oc4ccccc4)cc3)c3c(N)n[nH]c(=O)c32)C1` [Example 50, (E)-2-[(3R)-3-[4-amino-7-oxo-3-(4-phenoxyphenyl)-6H-pyrrolo[2,3-d]pyridazin-1-yl]piperidine-1-carbonyl]-3-cyclopropyl-prop-2-enenitrile] yielded an IC50 of 10 to 1000 nM.
Work on `C=CC(=O)N1CCC(Cn2cc(-c3ccc(Oc4ccccc4)cc3)c3c(N)n[nH]c(=O)c32)CC1` [Example 10, 4-amino-3-(4-phenoxyphenyl)-1-[(1-prop-2-enoyl-4-piperidyl)methyl]-6H-pyrrolo[2,3-d]pyridazin-7-one] yielded an IC50 of 10 to 1000 nM.
With `C=CC(=O)N1CCCC(n2cc(-c3ccc(Oc4ccc(F)cc4)cc3)c3c(N)n[nH]c(=O)c32)C1` (centres unmarked) [Example 60, 1-(1-acryloylpiperidin-3-yl)-4-amino-3-(4-(4-fluorophenoxy)phenyl)-1H-pyrrolo[2,3-d]pyridazin-7(6H)-one] the IC50 was 10 to 1000 nM.
For `C=CC(=O)N1CCCC(n2cc(-c3ccc(Oc4ccccc4F)cc3)c3c(N)n[nH]c(=O)c32)C1` (centres unmarked) [Example 55, 1-(1-acryloylpiperidin-3-yl)-4-amino-3-(4-(2-fluorophenoxy)phenyl)-1H-pyrrolo[2,3-d]pyridazin-7(6H)-one], the IC50 was no more than 10 nM.
With `CN(C)C/C=C/C(=O)N1CCCC(n2cc(-c3ccc(Oc4cccc(F)c4)cc3)c3c(N)n[nH]c(=O)c32)C1` (centres unmarked) [Example 63, 4-amino-1-[1-[(E)-4-(dimethylamino)but-2-enoyl]-3-piperidyl]-3-[4-(3-fluorophenoxy)phenyl]-6H-pyrrolo[2,3-d]pyridazin-7-one] the IC50 was no more than 10 nM.
For `C=CC(=O)N[C@H]1CC[C@H](n2cc(-c3ccc(Oc4ccccc4F)cc3)c3c(N)n[nH]c(=O)c32)CC1` [Example 105, N-((1r,4r)-4-(4-amino-3-(4-(2-fluorophenoxy)phenyl)-7-oxo-6,7-dihydro-1H-pyrrolo[2,3-d]pyridazin-1-yl)cyclohexyl)acrylamide], the IC50 was 10 to 1000 nM.
In the case of `C=CC(=O)N1CCCC(n2cc(-c3ccc(Oc4ccc(Cl)cc4)cc3)c3c(N)n[nH]c(=O)c32)C1` (centres unmarked) [Example 64, 1-(1-acryloylpiperidin-3-yl)-4-amino-3-(4-(4-chlorophenoxy)phenyl)-1H-pyrrolo[2,3-d]pyridazin-7(6H)-one], the IC50 is reported as 10 to 1000 nM.
